Assay results taken from patent publication US12583855B2, “RET selective inhibitor, preparation method therefor and use thereof” (SHOUYAO HOLDINGS (BEIJING) CO., LTD., priority 2019, dated 2026).
Where a chain is given by its changes, count along the chain named. pIC50: −log10 of the molar value.

Legend:
[1] = test system: KIF5B-RET/HEK293T cells; test: Cell proliferation activity in KIF5B-RET/HEK293T cells (Cell-Titer Glo); type: cell-based; conditions: Homo sapiens, HEK-293T, 72 h, read-out: KIFSB-RETV^804M/293T (Cell)IC50
[2] = target: T1, RET^V804M (Homo sapiens, UniProt P07949, V804M); test: In vitro enzymatic activity assay on RET^V804M (HTRF); type: biochemical; conditions: GST-RET^V804M (658-1114 aa) 0.02 nM, ATP 1.5 μM
T1 construct: GST-RET^V804M (658-1114 aa, final concentration of 0.02 nM)
T1 sequence (P07949 658-1114 V804M): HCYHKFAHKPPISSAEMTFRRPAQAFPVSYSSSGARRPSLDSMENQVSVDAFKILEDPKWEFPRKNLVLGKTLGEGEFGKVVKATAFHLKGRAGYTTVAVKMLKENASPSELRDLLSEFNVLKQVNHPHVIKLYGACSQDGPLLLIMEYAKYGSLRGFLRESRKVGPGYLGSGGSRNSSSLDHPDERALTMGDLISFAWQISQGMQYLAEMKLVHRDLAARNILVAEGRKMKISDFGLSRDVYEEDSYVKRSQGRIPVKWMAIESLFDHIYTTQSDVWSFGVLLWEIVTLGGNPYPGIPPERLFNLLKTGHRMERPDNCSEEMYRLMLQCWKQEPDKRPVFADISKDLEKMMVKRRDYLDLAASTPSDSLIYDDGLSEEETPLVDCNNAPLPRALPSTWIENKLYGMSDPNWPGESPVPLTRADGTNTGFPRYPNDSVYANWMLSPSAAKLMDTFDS

[3] = target: VEGFR2 (Homo sapiens, UniProt P35968); test: In vitro enzymatic activity assay on VEGFR2 (HTRF); type: biochemical; conditions: GST-VEGFR2 0.1 nM, ATP 2.5 μM
Sequence of VEGFR2 (P35968 20-1356): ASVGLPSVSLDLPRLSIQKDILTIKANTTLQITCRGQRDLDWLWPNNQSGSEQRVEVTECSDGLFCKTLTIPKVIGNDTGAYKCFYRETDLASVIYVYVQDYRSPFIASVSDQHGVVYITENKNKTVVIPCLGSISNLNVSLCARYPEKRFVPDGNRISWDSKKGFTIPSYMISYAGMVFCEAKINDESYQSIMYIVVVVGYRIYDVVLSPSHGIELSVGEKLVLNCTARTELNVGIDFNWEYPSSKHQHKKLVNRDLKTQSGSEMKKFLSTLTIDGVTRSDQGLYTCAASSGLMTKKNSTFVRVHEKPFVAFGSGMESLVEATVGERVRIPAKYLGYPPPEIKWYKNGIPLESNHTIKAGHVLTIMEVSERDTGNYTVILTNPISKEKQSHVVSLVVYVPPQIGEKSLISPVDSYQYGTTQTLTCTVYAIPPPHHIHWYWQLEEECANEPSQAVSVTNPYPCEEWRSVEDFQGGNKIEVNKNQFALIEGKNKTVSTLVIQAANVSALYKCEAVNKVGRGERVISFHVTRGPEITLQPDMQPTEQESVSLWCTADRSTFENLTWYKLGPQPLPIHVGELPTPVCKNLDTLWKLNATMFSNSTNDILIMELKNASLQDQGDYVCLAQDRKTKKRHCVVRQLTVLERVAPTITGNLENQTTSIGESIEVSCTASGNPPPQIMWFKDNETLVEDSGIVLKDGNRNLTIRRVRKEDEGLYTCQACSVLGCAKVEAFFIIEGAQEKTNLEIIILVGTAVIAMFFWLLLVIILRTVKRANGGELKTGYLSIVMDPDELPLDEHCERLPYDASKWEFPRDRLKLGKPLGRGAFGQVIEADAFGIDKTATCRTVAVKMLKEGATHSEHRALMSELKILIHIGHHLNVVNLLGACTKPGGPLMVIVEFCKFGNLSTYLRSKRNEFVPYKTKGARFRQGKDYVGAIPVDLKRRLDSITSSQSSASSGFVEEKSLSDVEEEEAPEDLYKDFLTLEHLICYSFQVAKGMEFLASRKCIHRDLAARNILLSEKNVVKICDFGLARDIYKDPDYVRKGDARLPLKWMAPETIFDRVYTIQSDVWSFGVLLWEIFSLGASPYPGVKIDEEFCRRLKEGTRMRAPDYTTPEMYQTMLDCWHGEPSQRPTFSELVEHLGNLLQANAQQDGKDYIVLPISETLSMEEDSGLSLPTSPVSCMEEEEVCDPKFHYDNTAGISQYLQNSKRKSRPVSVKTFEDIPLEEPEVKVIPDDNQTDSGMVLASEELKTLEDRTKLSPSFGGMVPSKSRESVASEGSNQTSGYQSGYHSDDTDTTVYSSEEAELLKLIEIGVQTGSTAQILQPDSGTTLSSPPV
How it was run: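 GST-VEGFR2 (0.1 nM final) with 2.5 μM ATP and 1 μM TK peptide substrate in HEPES pH 7.5 buffer with Mg²⁺/Mn²⁺, 1.5 h at 23 °C. HTRF read-out (665/620 nm ratio) after adding TK antibody and streptavidin-XL665. IC50 from 7-point, 5-fold dilution series.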

[4] = test system: TT cells; test: TT cell proliferation activity (Cell-Titer Glo); type: cell-based; conditions: TT human thyroid carcinoma cells, 120 h
Protocol: 4. Determination of TT Cell Proliferation Activity of Compounds
TT cells, a human thyroid carcinoma cell line, were cultured in Ham's F-12K medium supplemented with 15% fetal bovine serum (FBS, purchased from Biological Industries, BI) and 1% penicillin/streptomycin double antibody (P/S, purchased from Life Technology) under conditions of 37° C. and 5% CO2. TT cells were plated in a 96-well plate (#3917 purchased from Corning) at a concentration of 5000 cells/195 μL/well the day before compound was detected. The compounds were diluted 3-fold with 100% DMSO starting from 10 mM (10 concentrations in total) after 24 h, and 2 μL of each concentration was diluted in 48 μL of Ham's F-12K medium. 5 μL of each diluted compound was added to the plated Cell suspension, the compound and cells were co-incubated in a cell incubator for 120 h (5 days), after the medium was aspirated. 25 μL of Cell-Titer Glo (G7570, purchased from Promega) reagent was added and re-incubated for 5-10 min. Fluorescence value was then read on Envision and the data were calculated using GraphPad Prism software to obtain IC50 values for inhibition of cell proliferation by the compounds.

[5] = Pharmacokinetic data of compounds in male SD rats; type: in vivo; conditions: rat, po, intragastric, 5 mg/kg, suspension MC 0.5%, plasma
Protocol: 6. Pharmacokinetic Data of Compounds
Male SD rats (Beijing Vital River Laboratory Animal Technology Co., Ltd) were divided into groups. 3 in each group, received intragastric administration with the suspension of the test sample (5 mg/kg, suspensions MC 0.5%), respectively. Animals were fasted overnight prior to the experiment from 10 h before dosing to 4 h after dosing. Blood was collected 0.25, 0.5, 1, 2, 4, 6, 8, and 24 h after administration, respectively. After isoflurane anesthesia using a small animal anesthesia machine, 0.3 mL of whole blood samples was taken through the fundus venous plexus, placed in a heparin anticoagulant tube, and were centrifuged at 4° C. 4000 rpm for 5 min plasma was transferred to the centrifuge tube, and stored at −80° C. until analysis. Samples in the plasma were extracted using protein precipitation and the extracts were analyzed by LC/MS.

[6] = target: T2, RET^WT (Homo sapiens, UniProt P07949); test: In vitro enzymatic activity assay on RET^WT (HTRF); type: biochemical; conditions: GST-RET^WT (658-1114 aa) 0.5 nM, ATP 25 μM
T2 construct: GST-RET^WT (658-1114 aa, final concentration of 0.5 nM)
T2 sequence (P07949 658-1114): T1 sequence (P07949 658-1114 V804M) with M147V
How it was run: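 Reaction run 2 h at 23 °C in HEPES pH 7.5 buffer with Na3VO4, MgCl2, DTT, Tween 20 and BSA; compounds tested at 7 concentrations (5-fold serial dilution in DMSO from 0.2 mM stock). HTRF detection with TK antibody and streptavidin-XL665; IC50 from curve fitting.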

pIC50 [3]	AUC(0-inf) [5] [ng·h/mL]	Cmax [5] [ng/mL]	Tmax [5] [h]	half-life [5] [h]	Structure (SMILES)	pIC50 [1]	pIC50 [2]	pIC50 [4]	pIC50 [6]
8.00	8290	1660	2.17	2.02	CSc1ccc(CN2CCN(c3ccc(-c4cc(-c5cnn(C)c5)cn5ncc(C#N)c45)cn3)CC2)nc1 [Example 9, 6-(1-methyl-1Hpyrazol-4-yl)-4(6-(4-((5-(methylthio)pyridin-2-yl)methyl)piperazin-1-yl)pyridin-3-yl)pyrazolo[1,5-a]pyridine-3-carbonitrile]	6.43	8.91	7.43	9.25
					Cn1cc(-c2cc(-c3ccc(N4CC5CC(C4)N5Cc4ccc(S(C)(=O)=O)cc4)nc3)c3c(C#N)cnn3c2)cn1 [Example 25, 6-(1-methyl-1Hpyrazol-4-yl)-4-(6-(6-(4-(methylsulfonyl)benzyl)-3,6-diazabicyclo[3.1.1]heptan-3-yl)pyridin-3-yl)pyrazolo[1,5-a]pyridine-3-carbonitrile]	6.84	9.63	8.22	9.83
7.84					COCC1=C(C(=O)N2CCN(c3ccc(-c4cc(-c5cnn(C)c5)cn5ncc(C#N)c45)cn3)CC2)CCC1 [Example 12, 4-(6-(4-(2-(methoxymethyl)cyclopent-1-ene-1-carbonyl)piperazin-1-yl)pyridin-3-yl)-6-(1-methyl-1Hpyrazol-4-yl)pyrazolo[1,5-a]pyridine-3-carbonitrile]	6.85	8.83	8.20	9.19
8.01	12600	1460	2	3.53	COc1ccc(CN2C3CC2CN(c2ccc(-c4cc(N5CC(C)(O)C5)cn5ncc(C#N)c45)cn2)C3)cn1 [Example 7, 6-(3-hydroxy-3-methylazetidin-1-yl)-4-(6-(6-((6-methoxypyridin-3-yl)methyl)-3,6-diazabicyclo[3.1.1]heptan-3-yl)pyridin-3-yl)pyrazolo[1,5-a]pyridine-3-carbonitrile]	7.00		8.13	9.22
7.85					CSc1ccc(CN2CCN(c3ccc(-c4cc(-c5cnn(C)c5)cn5ncc(C#N)c45)cn3)CC2)cc1 [Example 17, 6-(1-methyl-1Hpyrazol-4-yl)-4-(6-(4-(4-(methylthio)benzyl)piperazin-1-yl)pyridin-3-yl)pyrazolo[1,5-a]pyridine-3-carbonitrile]	6.40			
8.04					CN(C)C(=S)N1CCN(c2ccc(-c3cc(-c4cnn(C)c4)cn4ncc(C#N)c34)cn2)CC1 [Example 8, 4-(5-(3-cyano-6-(1-methyl-1Hpyrazol-4-yl)pyrazolo[1,5-a]pyridine-4-yl)pyridin-2-yl)-N,N-dimethylpiperazin-1-carbothioamide]	6.79	9.04	7.85	9.06
					CSc1ccc(CN2C3CC2CN(c2ccc(-c4cc(-c5cnn(C)c5)cn5ncc(C#N)c45)cn2)C3)nc1 [Example 22, 6-(1-methyl-1Hpyrazol-4-yl)-4-(6-(6-((5-(methylthio)pyridin-2-yl)methyl)-3,6-diazabicyclo[3.1.1]heptan-3-yl)pyridin-3-yl)pyrazolo[1,5-a]pyridine-3-carbonitrile]	6.83	9.62	7.89	9.91

Structure (SMILES)	pIC50 [3]	AUC(0-inf) [5] [ng·h/mL]	Cmax [5] [ng/mL]	Tmax [5] [h]	half-life [5] [h]	pIC50 [1]	pIC50 [2]	pIC50 [4]	pIC50 [6]
CSc1ccc(CN2C3CC2CN(c2ccc(-c4cc(-c5cnn(C(F)F)c5)cn5ncc(C#N)c45)cn2)C3)cn1 [Example 60, 6-(1-(difluoromethyl)-1Hpyrazol-4-yl)-4-(6-(6-((6-(methylthio)pyridin-3-yl)methyl)-3,6-diazabicyclo[3.1.1]heptan-3-yl)pyridin-3-yl)pyrazolo[1,5-a]pyridine-3-carbonitrile]	8.51	14700	1140	1.5	7.45	6.55	9.23	7.73	9.99
CSc1cc(CN2C3CC2CN(c2ccc(-c4cc(-c5cnn(C(F)F)c5)cn5ncc(C#N)c45)cn2)C3)ccn1 [Example 72, 6-(1-(difluoromethyl)-1Hpyrazol-4-yl)-4-(6(6-((2-(methylthio)pyridin-4-yl)methyl)-3,6-diazabicyclo[3.1.1]heptan-3-yl)pyridin-3-yl)pyrazolo[1,5-a]pyridine-3-carbonitrile]	8.11					6.41	9.13	7.60	9.83
CC1(O)CN(c2cc(-c3ccc(N4CC5CC(C4)N5Cc4cccc(S(C)(=O)=O)c4)nc3)c3c(C#N)cnn3c2)C1 [Example 65, 6-(3-hydroxy-3-methylazetidin-1-yl)-4-(6-(6-(3-(methylsulfonyl)benzyl)-3,6-diazabicyclo[3.1.1]heptan-3-yl)pyridin-3-yl)pyrazolo[1,5-a]pyridine-3-carbonitrile]	7.71					6.46	8.73	7.62	9.17
Cn1cc(-c2cc(-c3ccc(N4CC5CC(C4)N5Cc4cccc(S(C)(=O)=O)c4)nc3)c3c(C#N)cnn3c2)cn1 [Example 20, 6-(1-methyl-1Hpyrazol-4-yl)-4-(6-(6-(3-(methylsulfonyl)benzyl)-3,6-diazabicyclo[3.1.1]heptan-3-yl)pyridin-3-yl)pyrazolo[1,5-a]pyridine-3-carbonitrile]	8.19					6.84	9.63	8.18	10.04
